Assay results published in ChEMBL document CHEMBL6153118, “Structure Optimization of Natural Product Catalpol to Obtain Novel and Potent Analogs against Heart Failure” (J Med Chem, 2025).
Calls of active or inactive are those of the source. The calls are words filed in the database; no cut-off is given here.

Experiments:
[1] = Cmax in C57/6J mouse at 20 mg/kg, po measured for 24 hrs; type: ADME, organism-based; settings: in vivo
H9c2 [2] = test: Cytoprotective activity against OGD-induced myocardial ischemic injury in rat H9c2 cells assessed as cell viability at 5 uM preincubated for 12 hrs followed by exposure to OGD condition for 3 hrs by CCK8 assay (reference value: 49.23 to 50.05 %); type: functional; settings: time 15 hrs, read-out: Activity
H9c2 [3] = test: Cytoprotective activity against OGD-induced myocardial ischemic injury in rat H9c2 cells assessed as decrease in cell death at 5 to 50 uM preincubated for 12 hrs followed by exposure to OGD condition for 3 hrs by crystal violet staining based analysis; type: functional; settings: dose 5-50 µM, time 15.0 hrs
[4] = AUC (0 to t) in C57/6J mouse at 20 mg/kg, po measured for 24 hrs; type: ADME, organism-based; settings: in vivo
[5] = Metabolic stability in mouse liver microsomes assessed as intrinsic clearance measured for 5 to 60 mins in presence of NADPH by LC-MS/MS analysis; type: ADME, Microsome; settings: time 5-60 min, read-out: CLH
[6] = MRT (0 to t) in C57/6J mouse at 20 mg/kg, po measured for 24 hrs; type: ADME, organism-based; settings: in vivo
H9c2 [7] = test: Cytoprotective activity against OGD-induced myocardial ischemic injury in rat H9c2 cells assessed as decrease in ROS level at 5 to 50 uM preincubated for 12 hrs followed by exposure to OGD condition for 3 hrs by DCFH-DA probe based analysis; type: functional, cell-based; settings: dose 5-50 µM, time 15.0 hrs
Mus musculus [8] = test: Improvement in motor ability in ISO-induced heart failure C57BL/6J mouse assessed as increase in time of remote motion with rotarod at 5 to 20 mg/kg/day, po for 14 days; type: functional, organism-based; settings: dose 5-20 mg/kg/day, time 14.0 day
[9] = Tmax in C57/6J mouse at 20 mg/kg, po measured for 24 hrs; type: ADME, organism-based; settings: in vivo
[10] = Half life in C57/6J mouse at 5 mg/kg, iv measured for 24 hrs; type: ADME, organism-based; settings: in vivo
Mus musculus [11] = test: Inhibition of cardiac fibrosis in ISO-induced heart failure C57BL/6J mouse at 5 to 20 mg/kg/day, po for 14 days; type: functional, organism-based; settings: dose 5-20 mg/kg/day, time 14.0 day
[12] = molecular target: Voltage-gated inwardly rectifying potassium channel KCNH2 (Homo sapiens, UniProt Q12809); test: Inhibition of hERG at 30 uM; type: toxicity
[13] = MRT (0 to t) in C57/6J mouse at 5 mg/kg, iv measured for 24 hrs; type: ADME, organism-based; settings: in vivo
[14] = Toxicity in C57BL/6J mouse assessed as signs of morbidity at 400 mg/kg, po administered as single dose measured for 7 days; type: organism-based; settings: in vivo, 168 h, time 7 day
CYP2D6 = CYP2D6 (Homo sapiens, UniProt P10635); test: Inhibition of CYP2D6 in human liver microsomes preincubated for 10 mins followed by NADPH addition measured after 10 mins by LC/MS/MS analysis relative to control; type: ADME, Microsome; settings: time 20 min
CYP2C19 = CYP2C19 (Homo sapiens, UniProt P33261); test: Inhibition of CYP2C19 in human liver microsomes preincubated for 10 mins followed by NADPH addition measured after 10 mins by LC/MS/MS analysis relative to control; type: ADME, Microsome; settings: time 20 min
[15] = Cmax in C57/6J mouse at 5 mg/kg, iv measured for 24 hrs; type: ADME, organism-based; settings: in vivo
H9c2 [16] = test: Inhibition of apoptosis in ISO-treated rat H9c2 cells assessed as increase in Bcl-2 level by Western blot analysis; type: functional, cell-based; settings: dose 5-50 µM
H9c2 [17] = test: Inhibition of apoptosis in ISO-treated rat H9c2 cells assessed as decrease in Bax level by Western blot analysis; type: functional, cell-based; settings: dose 5-50 µM
Mus musculus [18] = test: Inhibition of cardiomyocyte hypertrophy in ISO-induced heart failure C57BL/6J mouse assessed as decrease in GSK-3beta phosphorylation in heart tissue administered orally daily for 14 days by Western blot analysis; type: functional, organism-based; settings: dose 5-20 mg/kg/day, route po, time 14.0 day
Mus musculus [19] = test: Inhibition of cardiomyocyte hypertrophy in ISO-induced heart failure C57BL/6J mouse assessed as increase in Bcl-2 level in heart tissue at 5 to 20 mg/kg/day, po for 14 days by Western blot analysis; type: functional, organism-based; settings: dose 5-20 mg/kg/day, time 14.0 day
H9c2 [20] = test: Inhibition of cardiomyocyte hypertrophy in rat H9c2 cells assessed as decrease in ISO-induced ANP level at 50 uM by Western blot analysis; type: functional, cell-based
CYP1A2 = molecular target: T1, CYP1A2 (Homo sapiens, UniProt P05177); test: Inhibition of CYP1A2 in human liver microsomes preincubated for 10 mins followed by NADPH addition measured after 10 mins by LC/MS/MS analysis relative to control; type: ADME, Microsome; settings: time 20 min
T1 sequence (P05177 whole entry): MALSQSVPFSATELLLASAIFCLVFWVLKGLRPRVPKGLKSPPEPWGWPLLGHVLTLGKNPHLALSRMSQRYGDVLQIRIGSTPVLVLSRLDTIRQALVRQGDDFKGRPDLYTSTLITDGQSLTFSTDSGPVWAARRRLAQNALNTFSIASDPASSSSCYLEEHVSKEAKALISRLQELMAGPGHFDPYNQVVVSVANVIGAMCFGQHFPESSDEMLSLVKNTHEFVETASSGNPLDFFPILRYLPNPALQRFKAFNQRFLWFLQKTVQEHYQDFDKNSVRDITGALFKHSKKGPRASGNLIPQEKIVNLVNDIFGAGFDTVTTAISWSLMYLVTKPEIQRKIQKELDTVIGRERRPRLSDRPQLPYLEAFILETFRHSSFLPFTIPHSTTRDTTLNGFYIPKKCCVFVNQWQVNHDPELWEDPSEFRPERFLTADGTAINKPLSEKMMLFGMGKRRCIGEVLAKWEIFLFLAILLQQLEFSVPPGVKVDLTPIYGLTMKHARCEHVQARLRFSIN

Mus musculus [21] = test: Inhibition of cardiomyocyte hypertrophy in ISO-induced heart failure C57BL/6J mouse assessed as decrease in Bax level in heart tissue at 5 to 20 mg/kg/day, po for 14 days by Western blot analysis; type: functional, organism-based; settings: dose 5-20 mg/kg/day, time 14.0 day
[22] = AUC (0 to t) in C57/6J mouse at 5 mg/kg, iv measured for 24 hrs; type: ADME, organism-based; settings: in vivo
Mus musculus [23] = test: Inhibition of cardiomyocyte hypertrophy in ISO-induced heart failure C57BL/6J mouse assessed as decrease in ANP level administered orally daily for 14 days by Western blot analysis; type: functional, organism-based; settings: dose 5-20 mg/kg/day, route po, time 14.0 day
CYP3A4 = CYP3A4 (Homo sapiens, UniProt P08684); test: Inhibition of CYP3A4 in human liver microsomes preincubated for 10 mins followed by NADPH addition measured after 10 mins by LC/MS/MS analysis relative to control; type: ADME, Microsome; settings: time 20 min
[24] = Metabolic stability in human liver microsomes assessed as half life measured for 5 to 60 mins in presence of NADPH by LC-MS/MS analysis; type: ADME, Microsome; settings: time 5-60 min
[25] = Tmax in C57/6J mouse at 5 mg/kg, iv measured for 24 hrs; type: ADME, organism-based; settings: in vivo
[26] = Half life in C57/6J mouse at 20 mg/kg, po measured for 24 hrs; type: ADME, organism-based; settings: in vivo
H9c2 [27] = test: Cytoprotective activity against OGD-induced myocardial ischemic injury in rat H9c2 cells assessed as cell viability at 50 uM preincubated for 12 hrs followed by exposure to OGD condition for 3 hrs by CCK8 assay (reference value: 49.23 to 50.05 %); type: functional; settings: time 15 hrs, read-out: Activity

CYP3A4, sequence (P08684 whole entry): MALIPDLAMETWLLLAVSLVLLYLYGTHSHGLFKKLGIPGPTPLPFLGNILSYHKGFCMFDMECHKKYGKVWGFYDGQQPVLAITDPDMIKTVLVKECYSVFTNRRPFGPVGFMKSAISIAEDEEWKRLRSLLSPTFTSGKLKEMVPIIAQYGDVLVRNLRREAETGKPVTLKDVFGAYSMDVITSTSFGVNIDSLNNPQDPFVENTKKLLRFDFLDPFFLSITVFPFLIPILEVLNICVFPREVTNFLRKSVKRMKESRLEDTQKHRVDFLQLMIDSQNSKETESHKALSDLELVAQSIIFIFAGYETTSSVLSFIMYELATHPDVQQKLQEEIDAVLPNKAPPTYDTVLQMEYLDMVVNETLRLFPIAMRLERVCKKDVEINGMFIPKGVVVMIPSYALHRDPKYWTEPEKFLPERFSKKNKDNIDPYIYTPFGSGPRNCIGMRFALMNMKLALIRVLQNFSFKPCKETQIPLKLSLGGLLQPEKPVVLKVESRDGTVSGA
Voltage-gated inwardly rectifying potassium channel KCNH2, sequence (Q12809 whole entry): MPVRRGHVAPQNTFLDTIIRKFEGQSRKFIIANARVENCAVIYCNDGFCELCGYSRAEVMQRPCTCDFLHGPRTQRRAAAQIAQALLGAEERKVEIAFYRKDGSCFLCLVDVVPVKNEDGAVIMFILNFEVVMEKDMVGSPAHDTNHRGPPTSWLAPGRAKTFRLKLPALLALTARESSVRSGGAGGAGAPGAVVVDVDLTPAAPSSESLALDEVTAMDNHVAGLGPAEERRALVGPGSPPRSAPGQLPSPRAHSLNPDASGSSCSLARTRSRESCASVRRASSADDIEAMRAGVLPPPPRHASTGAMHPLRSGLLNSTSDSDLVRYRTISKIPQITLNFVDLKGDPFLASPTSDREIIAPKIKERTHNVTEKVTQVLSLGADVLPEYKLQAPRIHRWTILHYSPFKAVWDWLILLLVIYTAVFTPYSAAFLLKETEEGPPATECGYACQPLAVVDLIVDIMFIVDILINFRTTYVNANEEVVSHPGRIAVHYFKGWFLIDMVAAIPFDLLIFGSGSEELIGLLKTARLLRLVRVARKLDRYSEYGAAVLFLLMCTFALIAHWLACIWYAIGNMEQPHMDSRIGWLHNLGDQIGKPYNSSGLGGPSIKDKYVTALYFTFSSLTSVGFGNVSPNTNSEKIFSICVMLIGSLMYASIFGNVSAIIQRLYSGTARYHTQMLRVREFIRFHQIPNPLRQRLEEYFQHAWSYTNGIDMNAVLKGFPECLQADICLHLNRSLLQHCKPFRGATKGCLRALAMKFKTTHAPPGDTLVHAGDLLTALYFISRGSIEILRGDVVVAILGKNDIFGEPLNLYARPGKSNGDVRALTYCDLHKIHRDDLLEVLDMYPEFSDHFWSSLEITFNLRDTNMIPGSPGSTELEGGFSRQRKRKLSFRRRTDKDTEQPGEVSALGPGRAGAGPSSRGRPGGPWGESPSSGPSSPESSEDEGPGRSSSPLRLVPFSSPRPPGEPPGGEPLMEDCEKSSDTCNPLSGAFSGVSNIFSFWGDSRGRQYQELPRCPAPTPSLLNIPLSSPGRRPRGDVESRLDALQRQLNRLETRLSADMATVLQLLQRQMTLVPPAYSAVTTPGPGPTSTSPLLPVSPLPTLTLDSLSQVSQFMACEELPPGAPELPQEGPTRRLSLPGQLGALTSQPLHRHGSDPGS
CYP2D6, sequence (P10635 whole entry): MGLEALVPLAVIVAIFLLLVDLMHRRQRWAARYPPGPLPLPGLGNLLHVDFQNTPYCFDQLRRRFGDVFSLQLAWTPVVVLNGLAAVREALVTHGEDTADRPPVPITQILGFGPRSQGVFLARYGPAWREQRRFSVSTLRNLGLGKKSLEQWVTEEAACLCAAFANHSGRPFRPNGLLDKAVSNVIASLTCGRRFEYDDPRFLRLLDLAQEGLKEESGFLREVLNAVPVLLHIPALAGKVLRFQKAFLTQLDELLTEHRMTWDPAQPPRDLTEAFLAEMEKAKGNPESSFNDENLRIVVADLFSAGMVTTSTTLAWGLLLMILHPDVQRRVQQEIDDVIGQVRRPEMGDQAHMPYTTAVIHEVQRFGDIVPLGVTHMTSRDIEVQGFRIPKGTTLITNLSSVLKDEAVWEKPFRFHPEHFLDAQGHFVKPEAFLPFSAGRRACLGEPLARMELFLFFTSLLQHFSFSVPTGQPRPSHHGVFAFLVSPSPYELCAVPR
CYP2C19, sequence (P33261 whole entry): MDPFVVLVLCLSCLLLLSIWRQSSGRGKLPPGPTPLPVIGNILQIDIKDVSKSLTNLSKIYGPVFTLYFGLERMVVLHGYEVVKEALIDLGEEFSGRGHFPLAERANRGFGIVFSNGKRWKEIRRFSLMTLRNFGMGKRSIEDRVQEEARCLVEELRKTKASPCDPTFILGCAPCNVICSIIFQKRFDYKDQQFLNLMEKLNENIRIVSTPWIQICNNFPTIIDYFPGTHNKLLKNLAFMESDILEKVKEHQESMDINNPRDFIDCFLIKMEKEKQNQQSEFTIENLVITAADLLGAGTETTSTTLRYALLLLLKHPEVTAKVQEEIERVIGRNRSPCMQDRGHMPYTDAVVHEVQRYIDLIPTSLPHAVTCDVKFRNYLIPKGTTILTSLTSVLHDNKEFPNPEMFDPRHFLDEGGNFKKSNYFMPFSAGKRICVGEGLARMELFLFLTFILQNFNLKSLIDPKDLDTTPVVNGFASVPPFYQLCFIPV

For `OC[C@H]1O[C@@H](O[C@@H]2OC=C[C@H]3[C@H](O)[C@@H]4O[C@]4(COc4ccc(C(F)(F)F)cc4)[C@@H]23)[C@H](O)[C@@H](O)[C@@H]1O`, the Cmax [1] was 505 ng/mL, the viability at 5 µM (H9c2 [2]) was 64.6% and the Activity (H9c2 [3]) was “Active; Exhibited Superior Protective Efficacy Than Catal-Pol”. For the same compound, the AUC(0-t) at 24 h [4] was 1820 ng·h/mL, the CLint scaled [5] was under 38 mL/min/kg and the MRT last at 24 h [6] was 2.43 h. The Activity (H9c2 [7]) was “Active”, the Activity (Mus musculus [8]) was “Active” and the Tmax [9] was 1.42 h. The half-life [10] was 0.95 h, the inhibition (Mus musculus [11]) was “Active” and the “inhibition (INH)” value [12] was “Not_active”. For the same compound, the MRT last at 24 h [13] was 0.52 h, the Activity [14] was “Non-toxic” and the inhibition at 10 min (CYP2D6) was 4.3%. For the same compound, the inhibition at 10 min (CYP2C19) was 10.2%, the Cmax [15] was 2710 ng/mL and the inhibition (H9c2 [16]) was “Dose-dependent-effect”. For the same compound, the inhibition (H9c2 [17]) was “Dose-dependent-effect”, the inhibition (Mus musculus [18]) was “Dose-dependent-effect” and the inhibition (Mus musculus [19]) was “Active”. For the same compound, the inhibition (H9c2 [20]) was “Active”, the inhibition at 10 min (CYP1A2) was 8% and the inhibition (Mus musculus [21]) was “Active”. For the same compound, the AUC(0-t) at 24 h [22] was 1090 ng·h/mL, the inhibition (Mus musculus [23]) was “Dose-dependent-effect; Restored Anp Level To Physiological Level” and the inhibition at 10 min (CYP3A4) was 0.4%. The half-life [24] was over 2.42 h, the Tmax [25] was 4.98 min and the half-life [26] was 1.01 h. The viability at 50 µM (H9c2 [27]) was 72%.
